Patent US20060199736A1, “Environmentally benign bioactive formulation” (priority 2002, published 2006)

What was measured:
[1] = cited from earlier work
[2] = pH study of dilute solutions of VertecBio solvents with neem oil containing azadirachtin; assay type: physicochemical; conditions: solvent mixed with 3% (w/w) neem oil
Description: The biosolvents were mixed with 3% (w/w) neem oil containing the natural pesticide azadirachtin. These were diluted in water at one, two, and three percent concentrations. The Citrus™ and Gold™ blends were made of 80% ethyl lactate and 20% d-limonene and methyl soyate, respectively, as described above. […] The initial pH of the water was 7.80 pH units.

[3] = pH study of dilute solutions of VertecBio solvents with dichlorvos; assay type: physicochemical; conditions: solvent containing 1% dichlorvos
Description: In this example, the pH of a dilute solution of an organophosphate pesticide is tracked over time. The dilution into water is done without any surfactants.
The biosolvents were diluted in water at one, two, and three percent concentrations. The solvents, before being diluted, contained 1% dichlorvos. The VertecBio Citrus™ and Gold™ blends were made of 80% ethyl lactate and 20% d-limonene and methyl soyate respectively.
(§1) The initial pH of the water was approximately 7.80 pH units.

[4] = pH study of dilute solutions of VertecBio solvents in water; assay type: physicochemical
Description: The Citrus and Gold blends were made of 80% Ethyl lactate and 20% d-limonene and methyl soyate respectively. The pH was measured at various intervals and was recorded.
as §1

Compound: CCCCNC(=O)n1c(NC(=O)OC)nc2ccccc21 [Benlate, benomyl]
- ½ Life at pH 5.0 [1]: 30 hr
- ½ Life at pH 7.0 [1]: 1 hr

Compound: O=C1C2CC=CCC2C(=O)N1SC(Cl)(Cl)Cl (stereo not drawn) [Captan, captan]
- ½ Life at pH 5.0 [1]: 10 hr
- ½ Life at pH 7.0 [1]: 3 hr
- ½ Life at pH 8.0 [1]: 10 min
- ½ Life at pH 9.0 [1]: 2 min

Compound: CNC(=O)CSP(=S)(OC)OC [Cygon, dimethoate]
- ½ Life at pH 6.0 [1]: 12 hr
- ½ Life at pH 9.0 [1]: 48 min

Compound: CCOP(=S)(OCC)Oc1nc(Cl)c(Cl)cc1Cl [Dursban, chlorpyrofos]
- ½ Life at pH 5.0 [1]: 63 days
- ½ Life at pH 7.0 [1]: 35 days
- ½ Life at pH 8.0 [1]: 1.5 days

Compound: CCOC(=O)C(C)O (stereo not drawn) [Ethyl Lactate, ethyl lactate]
- pH of dilute solution ([2]; 1% in water, 4 hours): 7.43
- pH of dilute solution ([2]; 1% in water, 24 hours): 6.77
- pH of dilute solution ([2]; 1% in water, 48 hours): 6.94
- pH of dilute solution ([2]; 1% in water, 72 hours): 6.39
- pH of dilute solution ([2]; 1% in water, Initial): 7.59
- pH of dilute solution ([2]; 2% in water, 48 hours): 6.74
- pH of dilute solution ([2]; 2% in water, 72 hours): 6.02
- pH of dilute solution ([2]; 2% in water, Initial): 7.41
- pH of dilute solution ([2]; 3% in water, 24 hours): 6.68
- pH of dilute solution ([2]; 3% in water, 48 hours): 6.61
- pH of dilute solution ([2]; 3% in water, 72 hours): 5.78
- pH of dilute solution ([2]; 3% in water, Initial): 7.31
- pH of dilute solution ([3]; 1% in water, 4 hours): 7.3
- pH of dilute solution ([3]; 1% in water, 24 hours): 7.15
- pH of dilute solution ([3]; 1% in water, 48 hours): 7.08
- pH of dilute solution ([3]; 1% in water, 72 hours): 6.89
- pH of dilute solution ([3]; 1% in water, Initial): 7.72
- pH of dilute solution ([3]; 2% in water, 24 hours): 6.92
- pH of dilute solution ([3]; 2% in water, 48 hours): 6.55
- pH of dilute solution ([3]; 2% in water, 72 hours): 6.04
- pH of dilute solution ([3]; 2% in water, Initial): 7.5
- pH of dilute solution ([3]; 3% in water, 4 hours): 6.97
- pH of dilute solution ([3]; 3% in water, 24 hours): 6.6
- pH of dilute solution ([3]; 3% in water, 48 hours): 6.28
- pH of dilute solution ([3]; 3% in water, 72 hours): 5.45
- pH of dilute solution ([3]; 3% in water, Initial): 7.51
- pH of dilute solution ([4]; 1% in water, 2 hours): 7.25
- pH of dilute solution ([4]; 1% in water, 4 hours): 7.10
- pH of dilute solution ([4]; 1% in water, 6 hours): 6.95
- pH of dilute solution ([4]; 1% in water, 8 hours): 7.11
- pH of dilute solution ([4]; 1% in water, 24 hours): 6.78
- pH of dilute solution ([4]; 1% in water, 48 hours): 6.75
- pH of dilute solution ([4]; 1% in water, 72 hours): 6.56
- pH of dilute solution ([4]; 1% in water, Initial): 7.75
- pH of dilute solution ([4]; 2% in water, 2 hours): 7.14
- pH of dilute solution ([4]; 2% in water, 4 hours): 7.00
- pH of dilute solution ([4]; 2% in water, 6 hours): 6.90
- pH of dilute solution ([4]; 2% in water, 8 hours): 6.90
- pH of dilute solution ([4]; 2% in water, 24 hours): 6.56
- pH of dilute solution ([4]; 2% in water, 48 hours): 6.43
- pH of dilute solution ([4]; 2% in water, 72 hours): 5.88
- pH of dilute solution ([4]; 2% in water, Initial): 7.65
- pH of dilute solution ([4]; 3% in water, 2 hours): 7.01
- pH of dilute solution ([4]; 3% in water, 4 hours): 6.90
- pH of dilute solution ([4]; 3% in water, 6 hours): 6.78
- pH of dilute solution ([4]; 3% in water, 8 hours): 6.79
- pH of dilute solution ([4]; 3% in water, 24 hours): 6.47
- pH of dilute solution ([4]; 3% in water, 48 hours): 5.93
- pH of dilute solution ([4]; 3% in water, 72 hours): 5.47
- pH of dilute solution ([4]; 3% in water, Initial): 7.54

Compound: COP(=S)(OC)SCn1nnc2ccccc2c1=O [Guthion, azin-phos methyl]
- ½ Life at pH 5.0 [1]: 60 hr
- ½ Life at pH 9.0 [1]: 12 hr

Compound: COP(=S)(OC)SCN1C(=O)c2ccccc2C1=O [Imidan, phosmet]
- ½ Life at pH 5.0 [1]: 7 days
- ½ Life at pH 7.0 [1]: 12 hr
- ½ Life at pH 8.0 [1]: 4 hr

Compound: CCOC(=O)CC(SP(=S)(OC)OC)C(=O)OCC (stereo not drawn) [Malathion, malathion]
- ½ Life at pH 6.0 [1]: 8 days
- ½ Life at pH 7.0 [1]: 3 days
- ½ Life at pH 8.0 [1]: 19 hr
- ½ Life at pH 9.0 [1]: 5 hr

Compound: CNC(=O)Oc1cccc2ccccc12 [Sevin, carbaryl]
- ½ Life at pH 7.0 [1]: 10 days
- ½ Life at pH 9.0 [1]: 24 hr
